Legend:
human DNA polymerase α = biological target: T1, human DNA polymerase α (Homo sapiens, UniProt P09884); experiment: Human DNA polymerase α DdDp assay; assay type: biochemical
T1 construct: purchased CHIMERx 1075-1
T1 sequence (P09884 1-1462): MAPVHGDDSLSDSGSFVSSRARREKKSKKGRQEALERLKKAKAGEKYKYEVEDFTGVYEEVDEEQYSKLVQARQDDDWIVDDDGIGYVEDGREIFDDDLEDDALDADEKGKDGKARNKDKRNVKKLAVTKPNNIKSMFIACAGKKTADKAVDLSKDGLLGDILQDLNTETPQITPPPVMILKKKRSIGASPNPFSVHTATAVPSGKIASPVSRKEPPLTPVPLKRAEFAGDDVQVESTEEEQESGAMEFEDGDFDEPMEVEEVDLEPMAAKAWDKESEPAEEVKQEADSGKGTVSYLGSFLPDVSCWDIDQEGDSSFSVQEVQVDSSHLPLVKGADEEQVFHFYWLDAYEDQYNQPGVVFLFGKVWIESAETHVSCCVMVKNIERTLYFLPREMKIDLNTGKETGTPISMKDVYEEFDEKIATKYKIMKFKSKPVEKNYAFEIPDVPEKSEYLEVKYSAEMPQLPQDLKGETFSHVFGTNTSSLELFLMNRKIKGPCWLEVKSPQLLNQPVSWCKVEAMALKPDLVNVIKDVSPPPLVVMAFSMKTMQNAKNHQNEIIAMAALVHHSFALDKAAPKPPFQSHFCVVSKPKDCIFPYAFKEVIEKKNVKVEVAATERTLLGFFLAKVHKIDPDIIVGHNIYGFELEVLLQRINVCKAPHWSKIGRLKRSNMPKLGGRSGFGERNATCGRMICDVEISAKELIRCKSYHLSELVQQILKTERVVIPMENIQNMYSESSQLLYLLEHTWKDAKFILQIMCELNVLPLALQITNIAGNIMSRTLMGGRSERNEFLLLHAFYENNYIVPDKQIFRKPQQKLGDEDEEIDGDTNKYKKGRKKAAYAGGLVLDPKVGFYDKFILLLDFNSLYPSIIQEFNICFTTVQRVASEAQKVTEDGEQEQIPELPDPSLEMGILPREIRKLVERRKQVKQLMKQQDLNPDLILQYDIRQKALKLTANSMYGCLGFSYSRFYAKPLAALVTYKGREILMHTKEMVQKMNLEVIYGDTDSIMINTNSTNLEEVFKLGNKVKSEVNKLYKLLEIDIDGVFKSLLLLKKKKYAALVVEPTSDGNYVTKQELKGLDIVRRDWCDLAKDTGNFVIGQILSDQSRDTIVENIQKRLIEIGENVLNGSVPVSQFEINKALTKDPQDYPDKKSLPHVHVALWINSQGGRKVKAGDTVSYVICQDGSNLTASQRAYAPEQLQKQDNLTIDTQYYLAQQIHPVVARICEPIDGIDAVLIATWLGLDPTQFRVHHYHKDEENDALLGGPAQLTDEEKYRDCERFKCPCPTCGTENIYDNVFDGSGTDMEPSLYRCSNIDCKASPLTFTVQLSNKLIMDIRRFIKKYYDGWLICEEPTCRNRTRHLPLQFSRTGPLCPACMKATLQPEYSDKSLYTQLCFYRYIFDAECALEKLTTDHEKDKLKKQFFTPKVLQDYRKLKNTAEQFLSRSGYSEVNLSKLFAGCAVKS
Description: The DNA-dependent DNA polymerization (DdDp) activity of human DNA polymerases α, β, and γ was measured as described previously. Briefly, the assays were run with 5 U/mL recombinant DNA polymerase α (CHIMERx, cat#1075-1), 0.5 U/mL recombinant DNA polymerase β (CHIMERx, cat#1077-1), or 0.1 μg/mL recombinant DNA polymerase γ (Abcam, cat#196066), 62 μg/mL activated calf thymus DNA, 50 mM Tris-HCl (pH 8.0), 60 mM KCl, 5 mM MgCl2, 4 mM dithiothreitol (DTT), 0.1 mg/mL BSA, 2 μM dCTP, 2 μM dATP, 2 μM dGTP, 0.05 μCi/μL ^3H-dTTP (Perkin Elmer) and compounds at various concentrations at 30 °C for 2 h. The 50 μL reactions were processed following the same filter plate method as described above for HIV-1 RT. Acid-precipitated tritiated DNA products retained on the filters were detected by a Trilux MicroBeta scintillation reader (Perkin Elmer). All data were analyzed as described above for HIV-1 RT.

[1] = biological target: T2, HIV-1 reverse transcriptase (HIV-1 RT) (Human immunodeficiency virus type 1 group M subtype B, UniProt P03366); experiment: HIV-1 reverse transcriptase RdDp activity assay; assay type: biochemical
T2 construct: HIV-1 reverse transcriptase (HIV-1 RT) was purchased from Abcam (cat#ab63979); purchased Abcam ab63979
Description: HIV-1 reverse transcriptase (HIV-1 RT) was purchased from Abcam (cat#ab63979). Recombinant HBV polymerase (Hepatitis B virus genotype D subtype ayw, full length) was cloned using the baculovirus system, expressed in sf9 cells, and purified with similar strategy and methods described by Lanford et al.. A DNA primer (5′-[…]-3′) was synthesized by IDTDNA and a 358-nt RNA template was synthesized in-house using Megascript T7 transcription kit (ThermoFisher, cat#AM1334). dNTPs were purchased from Thermo Fisher and ^3H-dTTP from Perkin Elmer. Filter plates were purchased from Millipore (cat#MABN0V050) and microscint-20 was purchased from Perkin Elmer (cat#6013621).
The RNA-dependent DNA polymerization (RdDp) activity of HIV-1 RT was measured by the incorporation of radioactively labeled nucleotides by HIV-1 RT into acid-insoluble DNA products from the DNA primer primed RNA template. To test compound inhibition, the reactions were performed at 30 °C for 40 min in a reaction mixture containing reaction buffer (50 mM Tris-Cl, pH 7.5, 100 mM KCl, 12.5 mM MgCl2, 4 mM DTT), 1 nM HIV-1 RT, 0.1 µM DNA primer, 0.02 µM RNA template, 10% DMSO, 0.1 µM dATP, 1 µM dGTP, 0.1 µM dCTP, 0.32 µM ^3H-dTTP, and compounds at various concentrations. The 50 µL reactions were performed in 96-well plates. The reactions were quenched with a 60 µL cold mixture of 20% (w/v) TCA and 0.5 mM ATP and incubated at 4 °C for 1 h. The reactions were loaded onto 96-well filter plates. The filters on plates were washed three times with 10% TCA and once with 70% ethanol on a Millipore plate wash station with vacuum applied. The filters on the plate were air-dried and 40 μL Microscint-20 was added to each well. The acid-precipitated tritiated DNA products retained on the filters were detected by a Trilux MicroBeta scintillation reader (Perkin Elmer).
All data were analyzed with GraphPad Prism. The compound concentration at which the enzyme-catalyzed rate was reduced by 50% (IC50) was calculated by fitting the data to the equation Y = % Min + (% Max − % Min) / (1 + 10^((logIC50-X)*h)), where Y corresponds to the percent inhibition to the enzyme activity, % Min is the residual inhibition activity without compound, % Max is the maximum inhibition of enzyme activity at saturating compound concentration, and X corresponds to the log of compound concentrations, and h is the hillslope.

Nc1ncnc2c1ncn2[C@@H]1OC[C@](F)(COP(=O)(O)OP(=O)(O)OP(=O)(O)O)[C@H]1CO [Compound 38, ((3S,4S,5R)-5-(6-Amino-9H-purin-9-yl)-3-fluoro-4-(hydroxymethyl)tetrahydrofuran-3-yl)methyl triphosphate]
IC50 (human DNA polymerase α): 80 µM | inhibition of human DNA polymerases (human DNA polymerase α; human DNA polymerases α, β and γ together): low or no inhibition activity against human DNA polymerases | IC50 [1]: 0.32 µM | inhibition of HIV-1 RT [1]: potent inhibitor of HIV-1 RT

From publication PMC9025269, “Synthesis and Anti-Hepatitis B Activities of 3′-Fluoro-2′-Substituted Apionucleosides” (Molecules, 2022)
